Test system: T-47D spheroids with HUVEC/MSC, viability
Experiment: Anticancer human tumor T-47D cell line growth inhibition [PI3K];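 also: spheroids exposed to agents for seven days before reading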;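 as to viability, T/C: percent of DMSO vehicle control luminescence so 100% = untreated growth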
Conditions: for IC50: curve of first compound; for viability, T/C: stronger effect = lower value
Procedure, shortened: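 Complex 3D spheroids (cancer cells + endothelial HUVEC + mesenchymal stem cells); drug pairs of targeted agent x inavolisib/alpelisib/duvelisib/copanlisib; half-log series from ~Cmax, max 10 microM if Cmax unknown; endpoint viability.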

[1] = second compound 0.00316 µM, first compound 0.0316 µM
[2] = second compound 0.00316 µM, first compound 0.1 µM
[3] = second compound 0.01 µM, first compound 0.0316 µM
[4] = second compound 0.01 µM, first compound 0.1 µM
[5] = second compound 0.0316 µM, first compound 0.0316 µM
[6] = second compound 0.0316 µM, first compound 0.1 µM
[7] = second compound 0.1 µM, first compound 0.0316 µM
[8] = second compound 0.1 µM, first compound 0.1 µM
[9] = second compound 0.316 µM, first compound 0.0316 µM
[10] = second compound 0.316 µM, first compound 0.1 µM
[11] = second compound 1 µM, first compound 0.0316 µM
[12] = second compound 1 µM, first compound 0.1 µM

SMILES: CC(C)n1nc(-c2ccc3oc(N)nc3c2)c2c(N)ncnc21 + COc1c(OCCCN2CCOCC2)ccc2c3n(c(=NC(=O)c4cnc(N)nc4)nc12)CCN3
- IC50 (second compound 0.00316 µM): 0.0566 µM
- IC50 (second compound 0.01 µM): 0.0391 µM
- IC50 (second compound 0.0316 µM): 0.00378 µM
- IC50 (second compound 0.1 µM): < 0.000316 µM
- IC50 (second compound 0.316 µM): < 0.000316 µM
- IC50 (second compound 1 µM): < 0.000316 µM
- viability, T/C (second compound 0.00316 µM, first compound 0.000316 µM): 103%
- viability, T/C (second compound 0.00316 µM, first compound 0.001 µM): 82.3%
- viability, T/C (second compound 0.00316 µM, first compound 0.00316 µM): 106%
- viability, T/C (second compound 0.00316 µM, first compound 0.01 µM): 92.5%
- viability, T/C [1]: 77.6%
- viability, T/C [2]: 23.1%
- viability, T/C (second compound 0.01 µM, first compound 0.000316 µM): 103%
- viability, T/C (second compound 0.01 µM, first compound 0.001 µM): 78.2%
- viability, T/C (second compound 0.01 µM, first compound 0.00316 µM): 98.5%
- viability, T/C (second compound 0.01 µM, first compound 0.01 µM): 78.3%
- viability, T/C [3]: 57.7%
- viability, T/C [4]: 16.7%
- viability, T/C (second compound 0.0316 µM, first compound 0.000316 µM): 80.9%
- viability, T/C (second compound 0.0316 µM, first compound 0.001 µM): 58%
- viability, T/C (second compound 0.0316 µM, first compound 0.00316 µM): 52.1%
- viability, T/C (second compound 0.0316 µM, first compound 0.01 µM): 39.9%
- viability, T/C [5]: 29.8%
- viability, T/C [6]: 7.95%
- viability, T/C (second compound 0.1 µM, first compound 0.000316 µM): 46%
- viability, T/C (second compound 0.1 µM, first compound 0.001 µM): 36.5%
- viability, T/C (second compound 0.1 µM, first compound 0.00316 µM): 31.2%
- viability, T/C (second compound 0.1 µM, first compound 0.01 µM): 23.6%
- viability, T/C [7]: 15.8%
- viability, T/C [8]: 2.05%
- viability, T/C (second compound 0.316 µM, first compound 0.000316 µM): 14.4%
- viability, T/C (second compound 0.316 µM, first compound 0.001 µM): 17.3%
- viability, T/C (second compound 0.316 µM, first compound 0.00316 µM): 12.6%
- viability, T/C (second compound 0.316 µM, first compound 0.01 µM): 12.3%
- viability, T/C [9]: 6.24%
- viability, T/C [10]: 0.85%
- viability, T/C (second compound 1 µM, first compound 0.000316 µM): 5.77%
- viability, T/C (second compound 1 µM, first compound 0.001 µM): 4.9%
- viability, T/C (second compound 1 µM, first compound 0.00316 µM): 6.77%
- viability, T/C (second compound 1 µM, first compound 0.01 µM): 5.07%
- viability, T/C [11]: 3.21%
- viability, T/C [12]: 1.6%

SMILES: CC1(C)CCC(CN2CCN(c3ccc(C(=O)NS(=O)(=O)c4ccc(NCC5CCOCC5)c([N+](=O)[O-])c4)c(Oc4cnc5[nH]ccc5c4)c3)CC2)=C(c2ccc(Cl)cc2)C1 + COc1c(OCCCN2CCOCC2)ccc2c3n(c(=NC(=O)c4cnc(N)nc4)nc12)CCN3
- IC50 (second compound 0.00316 µM): > 10 µM
- IC50 (second compound 0.01 µM): > 10 µM
- IC50 (second compound 0.0316 µM): > 10 µM
- IC50 (second compound 0.1 µM): < 0.0316 µM
- IC50 (second compound 0.316 µM): < 0.0316 µM
- IC50 (second compound 1 µM): < 0.0316 µM
- viability, T/C [1]: 117%
- viability, T/C [2]: 80.5%
- viability, T/C (second compound 0.00316 µM, first compound 0.316 µM): 122%
- viability, T/C (second compound 0.00316 µM, first compound 1 µM): 74%
- viability, T/C (second compound 0.00316 µM, first compound 3.16 µM): 82.4%
- viability, T/C (second compound 0.00316 µM, first compound 10 µM): 108%
- viability, T/C [3]: 100%
- viability, T/C [4]: 69.8%
- viability, T/C (second compound 0.01 µM, first compound 0.316 µM): 91.5%
- viability, T/C (second compound 0.01 µM, first compound 1 µM): 78.6%
- viability, T/C (second compound 0.01 µM, first compound 3.16 µM): 80.1%
- viability, T/C (second compound 0.01 µM, first compound 10 µM): 88.1%
- viability, T/C [5]: 73%
- viability, T/C [6]: 81.8%
- viability, T/C (second compound 0.0316 µM, first compound 0.316 µM): 67.3%
- viability, T/C (second compound 0.0316 µM, first compound 1 µM): 69.4%
- viability, T/C (second compound 0.0316 µM, first compound 3.16 µM): 58.5%
- viability, T/C (second compound 0.0316 µM, first compound 10 µM): 75.1%
- viability, T/C [7]: 43.7%
- viability, T/C [8]: 42.3%
- viability, T/C (second compound 0.1 µM, first compound 0.316 µM): 37.1%
- viability, T/C (second compound 0.1 µM, first compound 1 µM): 38%
- viability, T/C (second compound 0.1 µM, first compound 3.16 µM): 35.2%
- viability, T/C (second compound 0.1 µM, first compound 10 µM): 41.4%
- viability, T/C [9]: 15.6%
- viability, T/C [10]: 22.3%
- viability, T/C (second compound 0.316 µM, first compound 0.316 µM): 17.9%
- viability, T/C (second compound 0.316 µM, first compound 1 µM): 18.1%
- viability, T/C (second compound 0.316 µM, first compound 3.16 µM): 14.8%
- viability, T/C (second compound 0.316 µM, first compound 10 µM): 16.6%
- viability, T/C [11]: 6.44%
- viability, T/C [12]: 6.49%
- viability, T/C (second compound 1 µM, first compound 0.316 µM): 6.92%
- viability, T/C (second compound 1 µM, first compound 1 µM): 7.19%
- viability, T/C (second compound 1 µM, first compound 3.16 µM): 4.62%
- viability, T/C (second compound 1 µM, first compound 10 µM): 9.27%
